Data published in ChEMBL document CHEMBL3988442, “University of Dundee, Small-Polar-MMV Screening Library” (2021).
Values joined by “and” are separate entries in the source; they are usually repeats but may differ in a detail not shown here. Identical values can stand only once.

Tests used:
Histidine--tRNA ligase [1] = target: T1, Histidine--tRNA ligase (Trypanosoma cruzi (strain CL Brener), UniProt Q4DA54); experiment: Trypanosoma cruzi histidyl tRNA synthetase (Tc-HisRS); assay type: functional
T1 sequence (Q4DA54 whole entry): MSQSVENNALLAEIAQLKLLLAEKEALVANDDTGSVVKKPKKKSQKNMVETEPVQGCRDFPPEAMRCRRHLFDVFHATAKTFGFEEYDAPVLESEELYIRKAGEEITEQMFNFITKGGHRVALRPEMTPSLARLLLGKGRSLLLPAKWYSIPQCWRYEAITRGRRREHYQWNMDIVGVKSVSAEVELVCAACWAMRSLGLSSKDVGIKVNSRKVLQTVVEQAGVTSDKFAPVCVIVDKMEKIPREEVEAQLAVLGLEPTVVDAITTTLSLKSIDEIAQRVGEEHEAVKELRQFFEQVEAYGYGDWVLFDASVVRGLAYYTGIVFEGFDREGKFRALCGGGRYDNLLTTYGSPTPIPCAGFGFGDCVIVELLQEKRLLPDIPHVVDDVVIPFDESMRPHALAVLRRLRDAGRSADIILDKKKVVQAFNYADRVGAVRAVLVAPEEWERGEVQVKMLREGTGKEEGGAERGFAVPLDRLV

ClpP1P2 = ClpP1P2 (Mycobacterium tuberculosis (strain ATCC 25618 / H37Rv), UniProt P9WPC3+P9WPC5); experiment: in vitro assay to detect presence of AMC directly proportional to the activity of ClpP1P2. GHDDI collaboration.; assay type: functional
ClpP1P2, sequence (P9WPC5 whole entry): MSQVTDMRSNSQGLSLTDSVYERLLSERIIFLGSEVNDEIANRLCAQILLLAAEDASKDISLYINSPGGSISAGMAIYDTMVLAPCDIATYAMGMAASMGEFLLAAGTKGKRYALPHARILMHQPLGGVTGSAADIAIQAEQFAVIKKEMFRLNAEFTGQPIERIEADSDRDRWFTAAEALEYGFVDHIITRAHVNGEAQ
ClpP1P2, sequence (P9WPC3 whole entry): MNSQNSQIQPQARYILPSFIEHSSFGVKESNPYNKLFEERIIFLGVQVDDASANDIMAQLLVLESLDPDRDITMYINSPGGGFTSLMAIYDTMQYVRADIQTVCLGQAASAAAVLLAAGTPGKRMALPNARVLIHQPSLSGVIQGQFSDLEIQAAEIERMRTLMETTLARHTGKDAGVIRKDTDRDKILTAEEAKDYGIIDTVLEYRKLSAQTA

Histidine--tRNA ligase [2] = target: T2, Histidine--tRNA ligase (Leishmania infantum, UniProt A4I591); experiment: Leishmania infantum Histidine tRNA synthetase (LdHisRS); assay type: functional
T2 sequence (A4I591 whole entry): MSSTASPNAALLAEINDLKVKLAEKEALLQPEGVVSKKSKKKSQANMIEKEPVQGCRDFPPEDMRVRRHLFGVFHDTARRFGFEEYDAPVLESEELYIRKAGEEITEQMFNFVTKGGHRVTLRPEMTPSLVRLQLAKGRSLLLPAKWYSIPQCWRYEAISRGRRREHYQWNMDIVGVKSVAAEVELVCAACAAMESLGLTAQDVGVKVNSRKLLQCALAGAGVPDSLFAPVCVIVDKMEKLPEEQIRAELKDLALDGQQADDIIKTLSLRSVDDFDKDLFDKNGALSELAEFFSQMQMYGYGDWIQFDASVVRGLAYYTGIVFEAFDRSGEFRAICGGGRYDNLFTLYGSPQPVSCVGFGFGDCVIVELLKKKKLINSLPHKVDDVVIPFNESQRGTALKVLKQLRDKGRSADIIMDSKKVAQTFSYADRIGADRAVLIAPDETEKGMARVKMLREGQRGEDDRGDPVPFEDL

[3] = microbe, parasite or virus in culture; details: Mycobacterium tuberculosis, 96 h, read-out: pIC50 (converted)
[4] = microbe, parasite or virus in culture; details: Mycobacterium tuberculosis, 72 h, read-out: pIC50 (converted)
[5] = In vitro enzyme assay to detect hydrolysis of chlorophenol red-beta-D-[…] directly proportional to the number of Toxoplasma stably expressing beta-galactosidase; assay type: functional, organism-based, Toxoplasma gondii; details: Toxoplasma gondii
Plasmodium falciparum = experiment: Calibr Malaria Delayed Death Assay SOP; assay type: functional, organism-based; details: for IC50: Plasmodium falciparum

| SMILES | IC50 (Histidine--tRNA ligase [1]) | further results |
| --- | --- | --- |
| CCN(CC)CCNC(=O)CCc1c(C)nn(-c2cccc(Cl)c2)c1C | > 100 µM |  |
| CNc1cc(-c2ccc(COCCN)cc2)c2cc[nH]c2n1 | 38.8 µM and 97 µM | IC50 (ClpP1P2): > 100 µM |
| Cc1ccc(N2CCCC3(COCCN(c4cnccn4)C3)C2)nn1 (stereo unspecified) | > 100 µM |  |
| Cc1ccc(N2CCOCC3(CCCN(c4ncc(F)cn4)C3)C2)nn1 (stereo unspecified) | > 100 µM |  |
| Cn1cc(NC(=O)N2CCCC2c2cccnc2)ccc1=O (stereo unspecified) | 5.39 µM and 6.42 µM | IC50 (Histidine--tRNA ligase [2]): 5.84 µM and 5.74 µM |
| O=C(O)c1ccccc1-c1ccc(CN2CC(c3ccncn3)C2)o1 | 52.3 µM and 57.8 µM |  |
| Cc1nc(CN(C)CC2CCCN2c2cccnn2)nc2ccccc12 (stereo unspecified) | 30.3 µM and 27.2 µM | IC50 (Histidine--tRNA ligase [2]): 11.8 µM and 14.8 µM; IC50 [3]: > 50.1 µM; IC50 [4]: 10.8 µM |
| CN(Cc1nc(N)c2ccccc2n1)CC1CCCN1c1cccnn1 (stereo unspecified) | > 100 µM |  |
| O=C1N(CC2CCCC2)CCC12CCN(c1ncc(F)cn1)CC2 | > 100 µM |  |
| Cn1cc(NC(=O)CCc2ccsc2)ccc1=O | 13.3 µM and 13.9 µM | IC50 (Histidine--tRNA ligase [2]): 12.7 µM and 13.3 µM |
| c1cnnc(N2CCCC(NCc3nc(C4CC4)no3)C2)c1 (stereo unspecified) | 52.8 µM and 48.2 µM |  |
| NCC1CCN(C2CCN(c3ccc(-c4ccco4)cc3)CC2)C1 (stereo unspecified) | 25.1 µM and 18.7 µM | IC50 [5]: 3.86 µM; IC50 (Histidine--tRNA ligase [2]): 25.6 µM and 22.1 µM; pIC50 (Plasmodium falciparum): 6.504; IC50 (Plasmodium falciparum): 0.343 µM; IC50 [4]: 11.7 µM |
| Cn1nc(Cn2ccnc2)c2c1CN(c1ncccn1)C2 | > 100 µM |  |
| Cn1nc(Cn2ccnc2)c2c1CN(c1nccs1)C2 | 88.3 µM and 86.2 µM | IC50 (Histidine--tRNA ligase [2]): 20.5 µM and 14.5 µM |
| CN(Cc1nc2ccccc2n1C)CC1CCCN1c1cccnn1 (stereo unspecified) | 52.7 µM and 52.1 µM |  |
| CCN(CC)CCNC(=O)CCc1c(C)nn(-c2ccc(Cl)cc2)c1C | > 100 µM |  |
| c1ccc(-c2noc(CNC3CCCN(c4cccnn4)C3)n2)nc1 (stereo unspecified) | > 100 µM | IC50 (Histidine--tRNA ligase [2]): 34.2 µM and 44.7 µM |
| CNC1CCN(C2CCN(c3ccc(-c4ccco4)cc3)CC2)CC1 | 65.7 µM and 43.8 µM | IC50 [3]: > 50.1 µM; IC50 [4]: 24.6 µM |
| CCN1CCC2(CCN(c3ncccn3)CC2)C1=O | > 100 µM |  |
| Cc1nccc(C2CN(Cc3ccc(-c4ccccc4C(=O)O)o3)C2)n1 | > 100 µM |  |
| Cc1nc(C)n(CC2CCCN2Cc2nc3ccccc3o2)n1 (stereo unspecified) | > 100 µM |  |
| COCCc1noc(CNC2CCCN(c3cccnn3)C2)n1 (stereo unspecified) | > 100 µM |  |

| SMILES | IC50 (Histidine--tRNA ligase [1]) | further results |
| --- | --- | --- |
| CC1CCN(c2ccc(C(=O)N3CCCC3c3nncn3C)cn2)CC1 (stereo unspecified) | > 100 µM |  |
| Cc1nc(C)n(CC2CCCN2Cc2nc3ccccc3nc2C)n1 (stereo unspecified) | > 100 µM |  |
| COc1cccn(CC(=O)N2CCCC3(CCCCC3)C2)c1=O | 4.24 µM and 4.44 µM | IC50 (Histidine--tRNA ligase [2]): 8.99 µM and 8.08 µM |
| Cc1ccc(N2CCCC3(COCCN(c4ccccn4)C3)C2)nn1 (stereo unspecified) | > 100 µM |  |
| Cc1noc(C)c1CN(C)CC1CCCN1c1cccnn1 (stereo unspecified) | > 100 µM |  |
| O=C(O)c1ccc(Cc2cccc(F)c2)nc1 | > 100 µM |  |
| Cc1cc(CNC2CCCN(c3cccnn3)C2)no1 (stereo unspecified) | > 100 µM |  |
| COCCN1CCC2(CCN(c3ncccn3)CC2)C1=O | > 100 µM |  |
| c1ccc(-c2nc(CNC3CCCN(c4cccnn4)C3)no2)cc1 (stereo unspecified) | > 100 µM |  |
| CC(C)n1ccnc1CNC(=O)c1cccc(CCC(C)(C)O)c1 | > 100 µM |  |
| Cc1nn(-c2ccccc2Cl)c(C)c1CCC(=O)NCCS(C)(=O)=O | > 100 µM |  |
| c1cnnc(N2CCCC(NCc3nc(-c4cccs4)no3)C2)c1 (stereo unspecified) | > 100 µM |  |
| Cc1nc2ccccc2nc1CN(C)CC1CCCN1c1cccnn1 (stereo unspecified) | 90.5 µM and 50.8 µM |  |
| CC(C)(O)CCc1cccc(C(=O)NCc2cnn3cccnc23)c1 | > 100 µM |  |
| O=C(O)c1cncc(Cc2cccc(F)c2)c1 | > 100 µM |  |
| NC1CCN(C2CCN(c3ccc(-c4ccco4)cc3)CC2)CC1 | 34.3 µM and 40.4 µM | IC50 (Histidine--tRNA ligase [2]): 23 µM and 22.9 µM |
| COc1ccc(C)cc1CN1CCC(c2cc3ncccc3cn2)CC1.Cl | 14.5 µM and 14.6 µM | IC50 (Histidine--tRNA ligase [2]): 17.6 µM and 23.6 µM; pIC50 (Plasmodium falciparum): 6.624; IC50 (Plasmodium falciparum): 0.264 µM; IC50 [3]: 25.8 µM; IC50 [4]: 19.4 µM |
| Cc1nc(C)n(CC2CCCN2Cc2nc3ccccc3c(=O)[nH]2)n1 (stereo unspecified) | > 100 µM |  |
| Cc1ccc(N2CC3(CCN(c4nccs4)C3)C2)nn1 | > 100 µM |  |
| Cc1nc(CN(C)CC2CCCN2c2cccnn2)oc1C (stereo unspecified) | > 100 µM |  |
| OCCNc1cc(-c2nccnc2N2CCCC2)c2cc[nH]c2n1 | 32.6 µM and 31 µM | IC50 (Histidine--tRNA ligase [2]): 16.2 µM and 14.9 µM |
